Experimental data as given in US20170112859A1, “METHOD OF TREATMENT USING AN ASSOCIATION OF LOSARTAN AND ACETYLSALICYLIC ACID, AND KIT” (BIOLAB SANUS FARMACEUTICA LTDA, priority 2014, published 2017).
“Also recorded” adds a separate entry of the source.

Legend:
[1] = target: T1, platelet cyclooxygenase enzyme (Homo sapiens, UniProt P23219); test: measurement of thromboxane B2 (TXB2) in stimulated platelet-rich plasma by immunoenzymatic technique; type: in vivo; conditions: D15-D17
T1 construct: from tissue; host or cells: platelets of dosed healthy volunteers (ex vivo stimulation with arachidonic acid or ADP)
T1 sequence (P23219 24-599): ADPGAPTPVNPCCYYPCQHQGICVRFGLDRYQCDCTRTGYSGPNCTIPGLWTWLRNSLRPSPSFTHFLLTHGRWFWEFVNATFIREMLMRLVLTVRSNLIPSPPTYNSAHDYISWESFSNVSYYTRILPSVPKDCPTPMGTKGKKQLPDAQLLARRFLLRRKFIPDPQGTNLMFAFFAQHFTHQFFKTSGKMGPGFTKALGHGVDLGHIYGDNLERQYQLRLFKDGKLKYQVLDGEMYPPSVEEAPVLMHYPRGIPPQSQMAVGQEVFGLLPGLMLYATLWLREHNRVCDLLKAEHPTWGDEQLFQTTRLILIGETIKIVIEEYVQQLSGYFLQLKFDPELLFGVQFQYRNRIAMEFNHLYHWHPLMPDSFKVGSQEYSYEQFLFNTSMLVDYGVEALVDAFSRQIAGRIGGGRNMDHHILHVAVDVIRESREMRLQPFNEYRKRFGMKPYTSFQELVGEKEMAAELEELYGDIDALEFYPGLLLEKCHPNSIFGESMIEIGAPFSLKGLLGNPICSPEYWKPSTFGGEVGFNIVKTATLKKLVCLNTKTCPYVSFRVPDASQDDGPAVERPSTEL
Protocol: (§1) One group (Arm A) received 30 days of daily doses of 50 mg of losartan potassium and 81 mg of acetylsalicylic acid. The second group (Arm B) received over the same 30 day period, daily doses of 50 mg of losartan potassium and doses of 81 mg of acetylsalicylic acid only every three days.
(§2) Control of bioavailability for acetylsalicylic acid in the analyzed individuals was performed through platelet aggregation tests, using arachidonic acid and adenosine diphosphate (ADP) as stimulants, and through the measuring of thromboxane by immunoenzymatic techniques.
Such control is based on tests to evaluate the competition between two compounds for binding to a specific antibody, namely, free thromboxane 2 (TXB 2) to be analyzed and present in the samples tested, and marked thromboxane 2 (TXB 2), attached to a molecule of acetylcholinesterase and with constant concentration (provided by the test kits).
(§3) The test results shown in FIGS. 1 to 6 consider four periods: D0, which is the pre-test time D15—the fifteenth day of testing, D16—the sixteenth day of testing and D17—the seventeenth day testing.

[2] = test system: prostaglandin synthesis (PGE2) in gastric mucosa; test: prostaglandin-E2 concentration in antrum biopsies collected during endoscopy, pre- and post-treatment; type: in vivo, human; conditions: 30 days
Protocol: as §1
To obtain this proof, endoscopic tests were performed on each volunteer, always before starting treatment and also after treatment, when biopsies were collected.
From these samples, collected from both Arm A and Arm B of the treatment, the inhibition of prostaglandin was measured.

[3] = test system: prostaglandin synthesis (PGE2) in gastric mucosa; conditions: daily use, as described in the prior art; cited from earlier work
platelet aggregation = platelet aggregation tests with arachidonic acid or ADP as stimulants, volunteers' platelet-rich plasma; type: in vivo, human
Protocol: as §1, §2, §3

[4] = Arm A: 81 mg daily plus 50 mg losartan potassium daily
[5] = Arm B: 81 mg every three days plus 50 mg losartan potassium daily

CC(=O)Oc1ccccc1C(=O)O [acetylsalicylic acid]
inhibition of the platelet cyclooxygenase enzyme [1, 4]: satisfactory inhibition | inhibition of the platelet cyclooxygenase enzyme [1, 5]: satisfactory inhibition | prostaglandin (PGE2) levels post-treatment versus pre-treatment basal [2, 4]: significant decrease | prostaglandin (PGE2) levels post-treatment versus pre-treatment basal [2, 5]: did not alter the basal dose; also recorded: remained unaltered | PGE2 levels [3]: drastically reduces | level of platelet inhibition (platelet aggregation; Arm A (81 mg daily) compared with Arm B (81 mg every three days), both with 50 mg losartan potassium daily, 30 days, healthy volunteers, stimulants arachidonic acid 300 μg/ml or ADP 20 μM): almost the same level of platelet inhibition | inhibitory effect of the platelet aggregation (platelet aggregation; acetylsalicylic acid administered every three days): sustained
